Patent US11524950B2, “Treatment of immune-related and inflammatory diseases” (Celgene Corporation, priority 2012, dated 2022)

How the values were obtained:
CD19+ B cells = experiment: B cell differentiation assay: CD20/CD38 phenotyping by flow cytometry; type: cell-based, human; settings: for CD20−CD38++ plasmablasts/plasma cells, % / CD20+CD38− activated B cells, % / CD20+CD38+ intermediated cells, %: 3 donors; for plasmablast population (CD20-CD38+): day 7, DMSO control 30.4%
Procedure: Differentiated B cells (see section 8.2.3) were harvested, counted, and aliquoted at about 1×10^6 cells or less per 4 mL tube. The cells were washed 1× with stain buffer. Next, the cells then were blocked with 10% human serum/PBS for 20-30 minutes. Following blocking, the cells were centrifuged for 5 minutes at 1200 rpm and supernatants discarded. In the 100 μL of remaining buffer, 20 μL of various BD Pharmigen flow antibodies were added according to experimental design. The cells were stained for 20-30 minutes at 4° C. Then the cells were washed 2× with stain buffer and supernatants discarded. Next, 500 μL of stain buffer or PBS was added to the tubes. The samples were immediately analyzed or put at 4° C. overnight. Cells were stained with mouse anti-human CD20 and CD38, CD19 and CD27, or respective isotype controls. All samples were analyzed using a FACSCanto flow cytometer, FACSDiva analysis software (BD Bioscience), and FlowJo Analysis software.
(§1) Immunophenotyping For Flow Cytometric Analysis: Cells were stained using multicolor direct immunofluorescence stain for flow cytometric analysis. Surface staining was performed before cell fixation and permeabilization. Cells (50 μl; 1×10^6 cells/ml in washing buffer, 2% FBS with 0.1% NaN3 in PBS) were used for each staining. The cells were stained with isotype control mAb ([…]) and multicolor FITC-conjugated anti-CD20 mAb and PE-conjugated anti-CD38 mAb, or PerCP-Cy5.5 conjugated anti-CD44 mAb, PE-conjugated anti-CD83 mAb were used for day 4 activated B cells (CD20+CD38-cells), and day 4 PBs and day 7 PBs (CD20-CD38+), and other staining, analyzed by flow cytometry as per manufacturer's instructions. The intracellular staining of transcription factor proteins (BCL-6, IRF-4, BLIMP-1, PAX-5 and XBP-1) and IgJ was performed according to the manufacturer's recommendations.

CD83 = CD83 expression in B cell differentiation culture (flow cytometry); type: cell-based, human
Procedure: as §1, with “recommendations. Flow cytometric analysis was performed with a FACSCanto using FACSDiva 6 (BD Biosciences). For data analysis, Flowjo (Tree Star) software was used.” for “recommendations.”
Using the same B cells in vitro differentiation system, the activity of the test compound on CD44 and CD83 expression in B cell differentiation was further investigated. Multicolor FITC-conjugated anti-CD20 mAb, PerCP Cy5.5-conjugated anti-CD44 mAb and PE-conjugated anti-CD83 mAb are used for day 4 and day 7 cells. The effect of the test compound was evaluated from 3 separate experiments representative of 3 donors.

IL-2 = experiment: T-cell costimulation: IL-2 production (immobilized anti-CD3, ELISA); type: cell-based; settings: Homo sapiens, 48 h, immobilized anti-CD3, 2 days, read-out: EC50 for co-stimulated IL-2 production by T cells
Procedure: CRBN ubiquitination was measured in HEK293T cells, which were transfected with an amino-terminal His-biotin-tagged CRBN construct, then preincubated with compounds for one hour followed by treatment with the MG132 proteasome inhibitor (to arrest degradation of ubiquitinated proteins). Cells were lysed and processed to measure CRBN ubiquitination by SDS-PAGE and immunoblot analysis using an anti-ubiquitin antibody. Cell proliferation studies were conducted in enalidomide-sensitive and refractory multiple myeloma cells. […] T-cell costimulation was measured in purified primary human T cells stimulated using immobilized anti-CD3 antibody in cell culture for 2 days, and cytokine secretion was measured by ELISA.

SMILES: O=C1CC[C@H](N2Cc3c(OCc4ccc(CN5CCOCC5)cc4)cccc3C2=O)C(=O)N1 [Test compound, (S)-3-[4-(4-morphlin-4-ylmethylbenzyloxy)-1-oxo-1,3-dihydro-isoindo-2-yl]piperidine-2,6-dione]
- percentage of CD20+CD38- activated B cells (CD19+ B cells): increased
- percentage of CD20-CD38+ plasmablasts (CD19+ B cells): dose-dependently reduced
- percentage of large size cells (gate p2) (CD19+ B cells; Day 4, 2 nM, DMSO 35.5%): 31.2%
- CD20−CD38++ plasmablasts/plasma cells, % (CD19+ B cells; Day 4, 20 nM, DMSO 25.9 ± 2.4): 4.8 ± 2.3%
- CD20−CD38++ plasmablasts/plasma cells, % (CD19+ B cells; Day 4, 20 nM, DMSO 25.9 ± 2.4, listed as test compound): 4.8%
- CD20+CD38− activated B cells, % (CD19+ B cells; Day 4, 20 nM, DMSO 42.1 ± 1.5): 57.9 ± 11.5%
- CD20+CD38− activated B cells, % (CD19+ B cells; Day 4, 20 nM, DMSO 42.1 ± 1.5, listed as test compound): 57.9%
- percentage of large size cells (gate p2) (CD19+ B cells; Day 4, 20 nM, DMSO 35.5%): 23.1%
- percentage of large size cells (gate p2) (CD19+ B cells; Day 4, 200 nM, DMSO 35.5%): 20.4%
- CD20+CD38+ intermediated cells, % (CD19+ B cells; Day 4, DMSO 14.7 ± 3.1): 18.3 ± 5.5%
- percentage of large size cells (gate p2) (CD19+ B cells; Day 7, 2 nM, DMSO 34.9%): 34.9%
- CD20+CD38− activated B cells, % (CD19+ B cells; Day 7, 20 nM, DMSO 12.5 ± 5.7): 50.5 ± 8.6%
- CD20+CD38− activated B cells, % (CD19+ B cells; Day 7, 20 nM, DMSO 12.5 ± 5.7, listed as test compound): 50.5%
- CD20−CD38++ plasmablasts/plasma cells, % (CD19+ B cells; Day 7, 20 nM, DMSO 54.8 ± 5.0): 9.7 ± 5.4%
- CD20−CD38++ plasmablasts/plasma cells, % (CD19+ B cells; Day 7, 20 nM, DMSO 54.8 ± 5.0, listed as test compound): 9.7%
- percentage of large size cells (gate p2) (CD19+ B cells; Day 7, 20 nM, DMSO 34.9%): 19.9%
- percentage of large size cells (gate p2) (CD19+ B cells; Day 7, 200 nM, DMSO 34.9%): 11.94%
- CD20+CD38+ intermediated cells, % (CD19+ B cells; Day 7, DMSO 22.8 ± 5.1): 23 ± 7.7%
- plasmablast population (CD20-CD38+) (CD19+ B cells; 2 nM): 27.3%
- plasmablast population (CD20-CD38+) (CD19+ B cells; 20 nM): 2.1%
- plasmablast population (CD20-CD38+) (CD19+ B cells; 200 nM): 0.4%
- large size cell population (gate p2) (CD19+ B cells; normal B cell differentiation assay): dose-dependently depleted
- total CD83+ cell population (CD83): significantly increased
- percentage of CD83+ cells (CD83; Day 4, 2 nM, DMSO 13.4%±2.4%): 24.1%
- percentage of CD83+ cells (CD83; Day 4, 20 nM, DMSO 13.4%±2.4%): 40.2%
- percentage of CD83+ cells (CD83; Day 4, 200 nM, DMSO 13.4%±2.4%): 49.5%
- percentage of CD83+ cells (CD83; Day 7, 2 nM, DMSO […]±3.3): 16.3%
- percentage of CD83+ cells (CD83; Day 7, 20 nM, DMSO […]±3.3): 36.1%
- percentage of CD83+ cells (CD83; Day 7, 200 nM, DMSO […]±3.3): 51.9%
- EC50 (IL-2): ~0.29 nM
